In experiment [1] the target is T1, catalytic domain of human Bub1 (amino acids 704-1085) (Homo sapiens, UniProt O43683).
T1 construct: catalytic domain of human Bub1 (amino acids 704-1085); His6 (N); made in house; host or cells: insect cells (Hi5)
The experiment can be described thus: Bub1 kinase assay (TR-FRET). Conditions: 10 μM ATP, avg, read-out: Bub1 avg (IC50 [mol/l]). It counts as biochemical. The essentials:
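Readout is the 665/620 nm TR-FRET ratio from anti-phosphoserine antibody, Eu-labelled anti-mouse IgG and streptavidin-XL665, scaled between no-enzyme and uninhibited controls. Reaction: 1 μM biotinylated peptide, 10 μM ATP, 60 min, 22 °C, after 15 min compound preincubation with His6-Bub1 (704-1085, insect-expressed, ~200 ng/ml).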
(In TR-FRET formats the signal depends on donor and acceptor labels being close together.)

Experiment [2] deals with HeLa. Put plainly: Proliferation assay (crystal violet), HeLa. It counts as cell-based. Conditions: Homo sapiens, HeLa, 96 h, HeLa cells; 4 days incubation; crystal violet staining; read-out: IC50 inhibition of proliferation, HeLa. The method in brief:
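Absorbance at 595 nm of crystal-violet-stained cells after 4 days' exposure to 0.001–10 μM compound (0.5% DMSO). Values normalized to a day-0 plate (0%) and untreated cells (100%); IC50 by 4-parameter fit.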

T1 sequence (O43683 704-1085): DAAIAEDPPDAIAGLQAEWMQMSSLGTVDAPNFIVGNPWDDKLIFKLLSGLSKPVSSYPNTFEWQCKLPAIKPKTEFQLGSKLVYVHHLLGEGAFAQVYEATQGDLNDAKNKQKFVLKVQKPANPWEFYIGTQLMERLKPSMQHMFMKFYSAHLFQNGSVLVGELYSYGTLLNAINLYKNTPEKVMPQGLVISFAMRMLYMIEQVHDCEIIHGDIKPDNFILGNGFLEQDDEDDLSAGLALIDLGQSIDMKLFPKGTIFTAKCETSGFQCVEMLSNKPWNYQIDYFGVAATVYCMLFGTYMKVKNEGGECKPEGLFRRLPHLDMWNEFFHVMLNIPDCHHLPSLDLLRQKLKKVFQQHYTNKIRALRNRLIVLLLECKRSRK

Consider `Cc1nsc(Nc2cnc(C(F)(F)F)cn2)c1C(=O)Nc1ccc(F)c(O[C@@H]2CCN(CC(F)F)C2)c1` [Example 412, N-(3-{[(3R)-1-(2,2-Difluoroethyl)pyrrolidin-3-yl]oxy}-4-fluorophenyl)-3-methyl-5-{[5-(trifluoromethyl)pyrazin-2-yl]amino}-1,2-thiazole-4-carboxamide], for which the IC50 in experiment [1] is above 20000 nM; in experiment [2], 260 nM.
On the same counts, the results for `Cc1nsc(Nc2cnc(C(F)(F)F)cn2)c1C(=O)Nc1ccc(F)c(O[C@@H]2CCN(CC(F)(F)F)C2)c1` [Example 413, N-(4-Fluoro-3-{[(3R)-1-(2,2,2-trifluoroethyl)pyrrolidin-3-yl]oxy}phenyl)-3-methyl-5-{[5-(trifluoromethyl)pyrazin-2-yl]amino}-1,2-thiazole-4-carboxamide] are above 20000 nM and 270 nM.
Turning to `Cc1nsc(Nc2cnc(C(F)(F)F)cn2)c1C(=O)Nc1ccc(F)c(O[C@@H]2CCN(CCC(F)(F)F)C2)c1` [Example 414, N-(4-Fluoro-3-{[(3R)-1-(3,3,3-trifluoropropyl)pyrrolidin-3-yl]oxy}phenyl)-3-methyl-5-{[5-(trifluoromethyl)pyrazin-2-yl]amino}-1,2-thiazole-4-carboxamide], the figures for the IC50 in experiment [1] and in experiment [2] were above 20000 nM and 290 nM, respectively.
`Cc1nsc(Nc2cnc(C(F)(F)F)cn2)c1C(=O)Nc1ccc(F)c(O[C@H]2CCN(CCC(F)(F)F)C2)c1` [Example 415, N-(4-Fluoro-3-{[(3S)-1-(3,3,3-trifluoropropyl)pyrrolidin-3-yl]oxy}phenyl)-3-methyl-5-{[5-(trifluoromethyl)pyrazin-2-yl]amino}-1,2-thiazole-4-carboxamide]: the results for the IC50 in experiment [1] and in experiment [2] were above 20000 nM and 350 nM, respectively.
Regarding `Cc1nsc(Nc2cnc(C(F)(F)F)cn2)c1C(=O)Nc1ccc(F)c(O[C@H]2CCN(CC(F)(F)F)C2)c1` [Example 416, N-(4-Fluoro-3-{[(35)-1-(2,2,2-trifluoroethyl)pyrrolidin-3-yl]oxy}phenyl)-3-methyl-5-{[5-(trifluoromethyl)pyrazin-2-yl]amino}-1,2-thiazole-4-carboxamide], the IC50 is above 20000 nM in experiment [1] and 250 nM in experiment [2].
With `Cc1nsc(Nc2cnc(C(F)(F)F)cn2)c1C(=O)Nc1ccc(F)c(O[C@H]2CCN(CC(F)F)C2)c1` [Example 417, N-(3-{[(3S)-1-(2,2-Difluoroethyl)pyrrolidin-3-yl]oxy}-4-fluorophenyl)-3-methyl-5-{[5-(trifluoromethyl)pyrazin-2-yl]amino}-1,2-thiazole-4-carboxamide], the results for the IC50 in experiment [1] and in experiment [2] were 1800 nM and 410 nM, respectively.
On the same counts, the results for `Cc1nsc(Nc2cnc(C(F)(F)F)cn2)c1C(=O)Nc1ccc(F)c(OC[C@H]2CCCN(CCC(F)(F)F)C2)c1` [Example 418, N-(4-Fluoro-3-{[(3S)-1-(3,3,3-trifluoropropyl)piperidin-3-yl]methoxy}phenyl)-3-methyl-5-{[5-(trifluoromethyl)pyrazin-2-yl]amino}-1,2-thiazole-4-carboxamide] are above 20000 nM and 1200 nM.
On to `Cc1nsc(Nc2cnc(C(F)(F)F)cn2)c1C(=O)Nc1ccc(F)c(OC[C@H]2CCCN(CC(F)(F)F)C2)c1` [Example 419, N-(4-Fluoro-3-{[(3S)-1-(2,2,2-trifluoroethyl)piperidin-3-yl]methoxy}phenyl)-3-methyl-5-{[5-(trifluoromethyl)pyrazin-2-yl]amino}-1,2-thiazole-4-carboxamide], for which the IC50 in experiment [1] is above 20000 nM; in experiment [2] it was 760 nM.
With `Cc1nsc(Nc2cnc(C(F)(F)F)cn2)c1C(=O)Nc1ccc(CCC2CCN(CCC(F)(F)F)CC2)nc1` [Example 420, 3-Methyl-5-{[5-(trifluoromethyl)pyrazin-2-yl]amino}-N-(6-{2-[1-(3,3,3-trifluoro-propyl)piperidin-4-yl]ethyl}pyridin-3-yl)-1,2-thiazole-4-carboxamide], the values for the IC50 in experiment [1] and in experiment [2] were at least 20000 nM and 630 nM, respectively.
Consider `CCN1CC[C@H](Oc2ccc(NC(=O)c3c(C)nsc3Nc3cnc(C(F)(F)F)cn3)cn2)[C@H](F)C1` [Example 424, N-(6-{[(3R,4S)-1-Ethyl-3-fluoropiperidin-4-yl]oxy}pyridin-3-yl)-3-methyl-5-{[5-(trifluoromethyl)pyrazin-2-yl]amino}-1,2-thiazole-4-carboxamide], for which the results for the IC50 in experiment [1] and in experiment [2] were above 20000 nM and 530 nM, respectively.
Consider `Cc1nsc(Nc2cnc(C(F)(F)F)cn2)c1C(=O)Nc1ccc(OCCNC(=O)C(F)(F)F)nc1` [Example 425, 3-Methyl-N-(6-{2-[(trifluoroacetyl)amino]ethoxy}pyridin-3-yl)-5-{[5-(trifluoro-methyl)pyrazin-2-yl]amino}-1,2-thiazole-4-carboxamide], for which the IC50 in experiment [1] is at least 20000 nM; in experiment [2] it was 1300 nM.
Regarding `Cc1nsc(Nc2cnc(C(F)(F)F)cn2)c1C(=O)Nc1ccc(F)c(OCCCNC(=O)C(F)(F)F)c1` [Example 427, N-(4-Fluoro-3-{3-[(trifluoroacetyl)amino]propoxy}phenyl)-3-methyl-5-{[5-(trifluoro-methyl)pyrazin-2-yl]amino}-1,2-thiazole-4-carboxamide], the IC50 in experiment [1] was at least 20000 nM; in experiment [2] it was 860 nM.
As to `Cc1nsc(Nc2cnc(C(F)(F)F)cn2)c1C(=O)Nc1ccc(OCCCNC(=O)C(F)(F)F)nc1` [Example 428, 3-Methyl-N-(6-{3-[(trifluoroacetyl)amino]propoxy}pyridin-3-yl)-5-{[5-(trifluoro-methyl)pyrazin-2-yl]amino}-1,2-thiazole-4-carboxamide], the IC50 in experiment [1] was above 20000 nM; in experiment [2] it was 1300 nM.
On the same counts, the results for `Cc1nsc(Nc2cnc(C(F)(F)F)cn2)c1C(=O)Nc1ccc(OCCN(C)C(=O)OC(C)(C)C)nc1` [Example 429, tert-Butyl methyl{2-[(5-{[(3-methyl-5-{[5-(trifluoromethyl)pyrazin-2-yl]amino}-1,2-thiazol-4-yl)carbonyl]amino}pyridin-2-yl)oxy]ethyl}carbannate] are above 20000 nM and 260 nM.
`Cc1nsc(Nc2cncc(C(F)(F)F)n2)c1C(=O)Nc1ccc(OCCN(C)C(=O)OC(C)(C)C)nc1` [Example 430, tert-Butyl methyl{2-[(5-{[(3-methyl-5-{[6-(trifluoromethyl)pyrazin-2-yl]amino}-1,2-thiazol-4-yl)carbonyl]amino}pyridin-2-yl)oxy]ethyl}carbannate]: the IC50 is above 20000 nM in experiment [1] and 920 nM in experiment [2].
For `Cc1nsc(Nc2cnc(C(F)(F)F)cn2)c1C(=O)Nc1ccc(OC2CCNCC2)c(F)c1` [Example 431, N-[3-Fluoro-4-(piperidin-4-yloxy)phenyl]-3-methyl-5-{[5-(trifluoromethyl)pyrazin-2-yl]amino}-1,2-thiazole-4-carboxamide], the IC50 in experiment [1] was above 20000 nM; in experiment [2] it was above 10000 nM.
On the same counts, the results for `Cc1nsc(Nc2cnc3ccccc3n2)c1C(=O)Nc1cccc(NC(=O)C(F)(F)F)c1` [Example 432, 3-Methyl-5-(quinoxalin-2-ylamino)-N-{3-[(trifluoroacetyl)amino]phenyl}-1,2-thiazole-4-carboxamide] are above 20000 nM and above 10000 nM.
As to `Cc1nsc(Nc2ccc(C#N)cn2)c1C(=O)Nc1ccc(Nc2ccc(F)c(F)c2)nc1` [Example 433, 5-[(5-Cyanopyridin-2-yl)amino]-N-{6-[(3,4-difluorophenyl)amino]pyridin-3-yl}-3-methyl-1,2-thiazole-4-carboxamide], the figures for the IC50 in experiment [1] and in experiment [2] were above 20000 nM and 5400 nM, respectively.
For `Cc1nsc(Nc2cnc3ccccc3n2)c1C(=O)Nc1ccc(NCCN(C)C(=O)OC(C)(C)C)nc1` [Example 434, tert-Butyl methyl(2-{[5-({[3-methyl-5-(quinoxalin-2-ylamino)-1,2-thiazol-4-yl]carbonyl}amino)pyridin-2-yl]amino}ethyl)carbamate], the IC50 in experiment [1] was above 20000 nM; in experiment [2] it was 8000 nM.
`CC(=O)Nc1ccc(NC(=O)c2c(C)nsc2Nc2ccc(C#N)cn2)cn1` [Example 435, N-(6-Acetamidopyridin-3-yl)-5-[(5-cyanopyridin-2-yl)amino]-3-methyl-1,2-thiazole-4-carboxamide]: the IC50 in experiment [1] is above 20000 nM; in experiment [2] it was above 10000 nM.

The values above are taken from patent US20170334899A1, “AMINO-SUBSTITUTED ISOTHIAZOLES” (Bayer Pharma Aktiengesellschaft, priority 2014, published 2017).
